Target: Complement factor D (Homo sapiens, UniProt P00746)
Assay: Human Factor D Assay: Human Factor D (purified from human serum, Complement Technology, Inc.) at 80 nM final concentration is incubated with test compound at various concentrations for 5 minutes at room temperature in 50 mM Tris, 1M NaCl, pH 7.5. A synthetic substrate Z-L-Lys-SBzl and DTNB (Ellman's reagent) are added to final concentrations of 100 μM each. Absorbance at 405 nm (A405) is recorded at 30 second intervals for 30 minutes using a microplate spectrophotometer. IC50values are calculated by nonlinear regression of complement Factor D reaction rates as a function of test compound concentration.

Sequence of Complement factor D (P00746 whole entry): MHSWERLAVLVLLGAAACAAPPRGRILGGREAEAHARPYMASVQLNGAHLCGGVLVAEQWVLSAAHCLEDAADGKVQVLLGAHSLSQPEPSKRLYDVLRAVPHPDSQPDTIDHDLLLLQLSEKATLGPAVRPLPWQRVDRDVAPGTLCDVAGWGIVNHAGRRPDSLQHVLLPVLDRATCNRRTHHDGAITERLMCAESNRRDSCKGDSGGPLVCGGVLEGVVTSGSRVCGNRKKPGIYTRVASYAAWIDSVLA

Row | Structure (SMILES) | IC50
1 | Cc1cccc(CC(O)[C@H]2C[C@@H](F)CN2C(=O)Cn2cc(C(N)=O)c3cc(C(=O)NS(=O)(=O)C4CC4)ccc32)n1 (some centres not stated) | > 10 µM
2 | Cc1cccc(CC(O)[C@@H]2C[C@@H](F)CN2C(=O)Cn2cc(C(N)=O)c3cc(C(=O)NS(=O)(=O)C4CC4)ccc32)n1 (some centres not stated) | > 10 µM

From ChEMBL document CHEMBL5729705, “Amide compounds for treatment of immune and inflammatory disorders” (2023)
